According to US20140378513A1, “USE OF FUNGICIDES IN LIQUID SYSTEMS” (priority 2011, published 2014):

Tests used:
Scenedesmus dimorphus = assay: Algae sensitivity screen, 96 well, growth rate by A750 over 8 days; format: cell-based
Protocol: (§1) The total volume per well is 200 μl. Each chemical is tested in triplicate.

Scenedesmus species = assay: as above; format: cell-based; details: 8 days
Protocol: as §1

[1] = test system: Pest in infected Scenedesmus dimorphus culture; assay: Fungicide efficacy on pest control in infected microalgae culture; format: cell-based; details: for positive efficacy in a first trial confirmed in a second trial: Table 6; for Rating: rating scale of 0 to 3 by percent efficacy; for Scenedesmus dimorphus Efficacy confirmation: second trial
Excerpt: Failure to treat an infected culture results in the collapse and loss of the microalgae culture. […] Test fungicides are graded on a rating scale of 0 to 3 where a score of 0 represents an efficacy of between 0 and 25%, a score of 1 represents an efficacy of between 26 and 50%, a score of 2 represents an efficacy of between 51 and 75% and a score of 3 represents an efficacy of between 76 and 100%.

microalgae = assay: Ranges of microalgae toxicity (serial dilution of fungicide in growing culture); details: range in which fungicide begins to show growth effects on microalgae
Excerpt: The present disclosure provides for the introduction of fungicides at an effective concentration. Effective concentrations may be determined according to manufacturer's instructions or may be determined empirically. An effective concentration of a fungicide is not toxic to the microalgae being cultured in the liquid system. Methods to determine toxicity are known in the art and include serial dilutions of a test fungicide in a growing liquid culture of microalgae. One of skill in the art would understand that different microalgae may have different ranges of toxicity that may be determined by growth of a microalga in the presence of a serial dilution of a fungicide.
Algae are screened for sensitivity to chemicals by preparing 180 ml of a log phase culture. The log phase culture is transferred into a 96 well microtiter plate at an absorbance at 750 nm (OD750 or A750) of ˜0.2. Twenty microliters of media is provided into the top row as a negative control, the middle six rows receive a 20 microliter dilution, which is a 10 fold dilution of the chemical at each transfer, of the chemical across an appropriate concentration gradient, and the bottom row receives 20 microliter of the solvent used to solubilize the pesticide alone as a control. The total volume per well is 200 μl. Each chemical is tested in triplicate. The growth of the algae is tracked daily by measuring the A750. After 8 days, the growth rate of the algae is measured by fitting the growth curve to a log model and deriving the maximum growth rate (r). The impact of the chemical is calculated by comparing the r of the algae at various dilutions of the pesticide to the control.

Desmid species = assay: Algae sensitivity screen, 96 well, growth rate by A750 over 8 days; format: cell-based
Protocol: as §1

[2] = log phase culture, 10 fold dilutions
[3] = Tetradesmus dimorphus, read-out: Scenedesmus dimorphus efficacy

With OC(c1ccc(Cl)cc1)(c1cncnc1)c1ccccc1Cl (centres unmarked) [fenarimol, (2-chlorophenyl)-(4-chlorophenyl)-pyrimidin-5-ylmethanol] as the compound, how does the Scenedesmus dimorphus toxicity (Scenedesmus dimorphus; [2]) read?
The Scenedesmus dimorphus toxicity was 0.0489-0.195 ppm.

What about the Scenedesmus species toxicity (Scenedesmus species; [2]) of the same compound?
The Scenedesmus species toxicity was 0.0489-0.195 ppm.

And the “positive efficacy in a first trial confirmed in a second trial” value (“positive efficacy” below) [1]?
Its value is “not confirmed”.

And the activity at 2 ppm [1, 3]?
The activity at 2 ppm was 31%.

What about the Rating [1] of the same compound?
Its Rating is 0 (a score of 0 represents an efficacy of between 0 and 25%).

And the “Ranges of Microalgae toxicity” value (microalgae)?
The value was 0.0489-0.195 ppm.

O=C(Nc1ccccc1-c1ccc(Cl)cc1)c1cccnc1Cl [boscalid] was tested. Which Rating [1] did it give?
Its Rating is 0 (a score of 0 represents an efficacy of between 0 and 25%).

mancozeb was tested. Which Rating [1] did it give?
The Rating was 0 (a score of 0 represents an efficacy of between 0 and 25%).

With CSC(=O)c1cccc2nnsc12 [benzo(1,2,3)thiadiazole-7-carbothioic acid-5-methyl ester] as the compound, how does the Scenedesmus dimorphus efficacy ([1]; @ 0.8 ppm, percent of growth of treated culture compared to uninfected control growth rate, first trial) read?
Its Scenedesmus dimorphus efficacy is 17.5% @ 0.8 ppm.

How did the Desmid species toxicity (Desmid species; [2]) turn out when CC1=C(C(=O)Nc2ccccc2)SCCO1 [carboxine, 6-methyl-N-phenyl-2,3-dihydro-1,4-oxathiine-5-carboxamide] was run?
The Desmid species toxicity was 0.977-3.906 ppm.

What about the Scenedesmus dimorphus toxicity (Scenedesmus dimorphus; [2]) of the same compound?
The Scenedesmus dimorphus toxicity was 0-0.244 ppm.

What about the Scenedesmus species toxicity (Scenedesmus species; [2]) of the same compound?
The Scenedesmus species toxicity was 0.244-0.977 ppm.

What about the “positive efficacy” value [1] of the same compound?
The value was “not confirmed”.

And the activity at 5 ppm [1, 3]?
Its activity at 5 ppm is 24.6%.

And the Rating [1]?
Its Rating is 0 (a score of 0 represents an efficacy of between 0 and 25%).

And the “Ranges of Microalgae toxicity” value (microalgae)?
Its value is 0.977-3.906 ppm.

CC(C)(C)C(O)(CCc1ccc(Cl)cc1)Cn1cncn1 (centres unmarked) [tebuconazole] was tested. Which Rating [1] did it give?
Its Rating is 0 (a score of 0 represents an efficacy of between 0 and 25%).

Which Rating [1] does the source give for CCNC(=O)NC(=O)/C(C#N)=N/OC [cymoxanil] here?
Its Rating is 0 (a score of 0 represents an efficacy of between 0 and 25%).

What does the source list for Cc1cc(C2CC2)nc(Nc2ccccc2)n1 [cyprodinil, 4-Cyclopropyl-6-methyl-N-phenylpyrimidin-2-amine]?
activity at 2 ppm [1, 3]: 8.1%; Rating [1]: 0 (a score of 0 represents an efficacy of between 0 and 25%)

Which results are given for O=C(Nc1ccccc1)c1ccccc1I [benodanil, 2-Iodo-N-phenylbenzamide]?
Scenedesmus dimorphus toxicity (Scenedesmus dimorphus; [2]): 0.3125-1.25 ppm; Scenedesmus species toxicity (Scenedesmus species; [2]): 0.3125-1.25 ppm; positive efficacy in a first trial confirmed in a second trial [1]: not confirmed; activity at 5 ppm [1, 3]: 38.7%; Rating [1]: 0 (a score of 0 represents an efficacy of between 0 and 25%); Ranges of Microalgae toxicity (microalgae): 0.3125-1.25 ppm

For CCCOC(=O)NCCCN(C)C [propamocarb], which Desmid species toxicity (Desmid species; [2]) is on record?
Its Desmid species toxicity is 3.906-15.625 ppm.

What about the Scenedesmus dimorphus toxicity (Scenedesmus dimorphus; [2]) of the same compound?
The Scenedesmus dimorphus toxicity was 15.63-62.5 ppm.

And the Scenedesmus species toxicity (Scenedesmus species; [2])?
Its Scenedesmus species toxicity is 3.906-15.63 ppm.

And the Rating [1]?
The Rating was 0 (a score of 0 represents an efficacy of between 0 and 25%).

What about the “Ranges of Microalgae toxicity” value (microalgae) of the same compound?
The value was 3.906-62.5 ppm.

What does the source list for CCC(C)(NC(=O)c1cc(Cl)c(C)c(Cl)c1)C(=O)CCl (centres unmarked) [zoxamide]?
Desmid species toxicity (Desmid species; Desmid species): 0.0156-0.0625 ppm; Scenedesmus dimorphus toxicity (Scenedesmus dimorphus; Scenedesmus dimorphus): 0.0625-0.250 ppm; Scenedesmus species toxicity (Scenedesmus species; Scenedesmus species): 0.0156-0.0625 ppm; Rating [1]: 0 (a score of 0 represents an efficacy of between 0 and 25%); Ranges of Microalgae toxicity (microalgae): 0.0156-0.250 ppm

With CON=C(C(=O)OC)c1ccccc1CON=C(C)c1cccc(C(F)(F)F)c1 [trifloxystrobin] as the compound, how does the Rating [1] read?
The Rating was 0 (a score of 0 represents an efficacy of between 0 and 25%).

With CCC(C)c1cc([N+](=O)[O-])cc([N+](=O)[O-])c1OC(=O)C=C(C)C (centres unmarked) [binapacryl] as the compound, how does the Scenedesmus dimorphus toxicity (Scenedesmus dimorphus; [2]) read?
Its Scenedesmus dimorphus toxicity is 0.125-0.5 ppm.

What about the Scenedesmus species toxicity (Scenedesmus species; [2]) of the same compound?
The Scenedesmus species toxicity was 0.125-0.5 ppm.

What about the “Ranges of Microalgae toxicity” value (microalgae) of the same compound?
Its value is 0.125-0.5 ppm.

What does the source list for CCCN(CC)CC1COC2(CCC(C(C)(C)C)CC2)O1 (centres unmarked) [spiroxamine]?
Desmid species toxicity (Desmid species; Desmid species): 0.250-1.0 ppm; Scenedesmus dimorphus toxicity (Scenedesmus dimorphus; Scenedesmus dimorphus): 0.0625-0.250 ppm; Scenedesmus species toxicity (Scenedesmus species; Scenedesmus species): 0.250-1.0 ppm; Rating [1]: 0 (a score of 0 represents an efficacy of between 0 and 25%); Ranges of Microalgae toxicity (microalgae): 0.0625-1.0 ppm

With O=CNC(N1CCN(C(NC=O)C(Cl)(Cl)Cl)CC1)C(Cl)(Cl)Cl (centres unmarked) [triforin] as the compound, how does the Rating [1] read?
The Rating was 0 (a score of 0 represents an efficacy of between 0 and 25%).

What does the source list for COC(=O)NC(=S)Nc1ccccc1NC(=S)NC(=O)OC [thiophanate-methyl, methyl N-[[2-(methoxycarbonylcarbamothioylamino)phenyl]carbamothioyl]carbamate]?
activity at 5 ppm [1, 3]: 9.6%; Rating [1]: 0 (a score of 0 represents an efficacy of between 0 and 25%)

What does the source list for N#Cc1sc2c(=O)c3ccccc3c(=O)c=2sc1C#N [dithianon, 5,10-dioxobenzo[g][1,4]benzodithiine-2,3-dicarbonitrile]?
Scenedesmus dimorphus toxicity (Scenedesmus dimorphus; Scenedesmus dimorphus): 0.625-2.5 ppm; Scenedesmus dimorphus Efficacy confirmation ([1]; @ 5 ppm): 52.2% @ 5 ppm; activity at 5 ppm [1, 3]: 37%; Rating [1]: 2 (a score of 2 represents an efficacy of between 51 and 75%); Ranges of Microalgae toxicity (microalgae): 0.625-2.5 ppm

How did the Rating [1] turn out when CO/N=C(/C(=O)OC)c1ccccc1COc1ccccc1C [kresoxim-methyl] was run?
Its Rating is 0 (a score of 0 represents an efficacy of between 0 and 25%).

What does the source list for CCCCCCCCCCCCNC(=N)N [dodine, dodecylguanidinium acetate]?
Scenedesmus dimorphus Efficacy confirmation ([1]; @ 2 ppm): 100% @ 2 ppm; activity at 2 ppm [1, 3]: 93.9%; Rating [1]: 3 (a score of 3 represents an efficacy of between 76 and 100%)

CO/C=C(/C(=O)OC)c1ccccc1Oc1cc(Oc2ccccc2C#N)ncn1 [azoxystrobin] was tested. Which Rating [1] did it give?
Its Rating is 0 (a score of 0 represents an efficacy of between 0 and 25%).

For CC1CN(C2CCCCCCCCCCC2)CC(C)O1 (centres unmarked) [dodemorph], which Scenedesmus dimorphus toxicity (Scenedesmus dimorphus; [2]) is on record?
Its Scenedesmus dimorphus toxicity is 0.195-0.781 ppm.

And the Scenedesmus species toxicity (Scenedesmus species; [2])?
Its Scenedesmus species toxicity is 0.195-0.781 ppm.

And the Rating [1]?
Its Rating is 0 (a score of 0 represents an efficacy of between 0 and 25%).

What about the “Ranges of Microalgae toxicity” value (microalgae) of the same compound?
Its value is 0.195-0.781 ppm.

With N#CC(Br)(Br)C(N)=O [dibromocyanoacetamide, 2,2-dibromo-2-cyanoacetamide] as the compound, how does the “positive efficacy” value [1] read?
Its value is “not confirmed”.

And the activity at 5 ppm [1, 3]?
Its activity at 5 ppm is 35.4%.

And the Rating [1]?
The Rating was 0 (a score of 0 represents an efficacy of between 0 and 25%).

How did the Rating [1] turn out when COCC(=O)N(c1c(C)cccc1C)C(C)C(=O)OC (centres unmarked) [metalaxyl] was run?
Its Rating is 0 (a score of 0 represents an efficacy of between 0 and 25%).

How did the activity at 5 ppm [1, 3] turn out when O=[N+]([O-])C(Br)(CO)CO [bronopol, 2-bromo-2-nitropropane-1,3-diol] was run?
The activity at 5 ppm was 14.3%.

And the Rating [1]?
The Rating was 0 (a score of 0 represents an efficacy of between 0 and 25%).

What does the source list for dinocap?
Scenedesmus dimorphus toxicity (Scenedesmus dimorphus; [2]): 0.0039-0.0156 ppm; Scenedesmus species toxicity (Scenedesmus species; [2]): 0.0156-0.0625 ppm; Rating [1]: 0 (a score of 0 represents an efficacy of between 0 and 25%); Ranges of Microalgae toxicity (microalgae): 0.0039-0.0625 ppm

What does the source list for CCCC1COC(Cn2cncn2)(c2ccc(Cl)cc2Cl)O1 (centres unmarked) [propiconazole, 1-[[2-(2,4-dichlorophenyl)-4-propyl-1,3-dioxolan-2-yl]methyl]-1,2,4-triazole]?
Scenedesmus dimorphus Efficacy confirmation ([1]; @ 0.8 ppm): 18.6% @ 0.8 ppm; activity at 0.32 ppm [1, 3]: 30.6%; Rating [1]: 0 (a score of 0 represents an efficacy of between 0 and 25%)

With OC(Cc1ccccc1Cl)(Cn1nc[nH]c1=S)C1(Cl)CC1 (centres unmarked) [prothioconazole] as the compound, how does the Rating [1] read?
The Rating was 0 (a score of 0 represents an efficacy of between 0 and 25%).

For CC1(C(=O)Nc2ccc(O)c(Cl)c2Cl)CCCCC1 [fenhexamid], which Desmid species toxicity (Desmid species; Desmid species) is on record?
Its Desmid species toxicity is 15.63-62.5 ppm.

And the Rating [1]?
The Rating was 0 (a score of 0 represents an efficacy of between 0 and 25%).

What about the “Ranges of Microalgae toxicity” value (microalgae) of the same compound?
Its value is 15.63-62.5 ppm.

For CCO[PH](=O)O [fosetyl-aluminum (100 mg), fosetyl-aluminum], which Rating [1] is on record?
The Rating was 0 (a score of 0 represents an efficacy of between 0 and 25%).
